Measured values reported in patent US12508271B2, “Prodrugs of 2-PMPA for healthy tissue protection during PSMA-targeted cancer imaging or radiotherapy” (The Johns Hopkins University, priority 2017, dated 2025).

Columns and labels:
PSMA [1] = target: PSMA (Mus musculus, UniProt O35409); details: 2-PMPA 0.01 mg co-injection with 177Lu-PSMA I&T (100 MBq); cited from earlier work
PSMA [2] = target: PSMA (Homo sapiens, UniProt Q04609); details: 2-PMPA 0.01 mg co-injection with 177Lu-PSMA I&T (100 MBq); cited from earlier work
[3] = cited from earlier work
[4] = Pharmacokinetics/tissue distribution of 2-PMPA in C4-2 prostate cancer tumor-bearing NSG mice; format: in vivo; details: 2-PMPA administered directly, 3 mg/kg i.v.
Procedure: To generate a C4-2 in vivo model, 3×10^6 LNCaP-C4-2 cells were subcutaneously injected into the flanks of male NSG mice. When tumors grew to approximately 600-800 mm^3, tumors were excised, aseptically cut into 2-mm×2-mm pieces and frozen back viably (5% DMSO/95% FBS). Tumors were not passaged from mouse to mouse more than 4 times. For the current experiment, two vials of viably frozen explants were thawed at 37° C. Tumor explants were washed in RPMI without FCS and then surgically implanted in a subcutaneous pocket in male NSG mice. When tumors reached 600-800 mm^3, mice were euthanized, tumors excised aseptically, and cut into 2-mm×2-mm pieces prior to re-implantation into 40 mice. When tumors reached 500-700 mm^3, the pharmacokinetic experiment was performed. 2-PMPA (3 mg/kg, i.v.) or a molar equivalent of Tris-POC-2-PMPA (7.62 mg/kg, i.v.) were injected via tail vein after dissolution in vehicle (5% EtOH/10% Tween 80/85% 50 mM HEPES). Mice were then euthanized under isoflurane anesthesia 0.25, 0.5, 1, 3, or 6 hours later (n=3/group). Blood was collected by cardiac puncture into EDTA-lined tubes and stored on ice until plasma was isolated by centrifugation. Salivary glands, kidneys, and tumor were harvested and flash frozen on dry ice. All tissues were stored at −80° C. prior to bioanalysis.

PSMA (Mus musculus, UniProt O35409), sequence (O35409 whole entry): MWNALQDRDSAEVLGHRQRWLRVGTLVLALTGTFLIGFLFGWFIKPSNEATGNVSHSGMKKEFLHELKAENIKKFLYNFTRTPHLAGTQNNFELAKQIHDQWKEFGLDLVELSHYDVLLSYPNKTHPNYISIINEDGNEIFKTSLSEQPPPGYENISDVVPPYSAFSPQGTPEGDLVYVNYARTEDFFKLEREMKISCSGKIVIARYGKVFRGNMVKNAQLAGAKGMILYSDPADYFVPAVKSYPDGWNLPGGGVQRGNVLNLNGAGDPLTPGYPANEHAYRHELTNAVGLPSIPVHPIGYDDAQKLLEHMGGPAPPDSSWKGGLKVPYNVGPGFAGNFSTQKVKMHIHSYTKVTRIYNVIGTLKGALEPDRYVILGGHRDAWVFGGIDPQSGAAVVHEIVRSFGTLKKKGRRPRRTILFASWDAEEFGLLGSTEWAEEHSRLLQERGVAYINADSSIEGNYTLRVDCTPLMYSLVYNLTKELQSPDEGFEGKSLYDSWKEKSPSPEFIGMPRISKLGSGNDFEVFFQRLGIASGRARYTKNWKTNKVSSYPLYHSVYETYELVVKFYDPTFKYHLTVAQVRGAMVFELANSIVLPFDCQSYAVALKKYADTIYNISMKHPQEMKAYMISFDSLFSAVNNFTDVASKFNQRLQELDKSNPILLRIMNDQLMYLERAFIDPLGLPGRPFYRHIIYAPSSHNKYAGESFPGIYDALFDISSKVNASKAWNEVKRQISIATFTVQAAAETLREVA
PSMA (Homo sapiens, UniProt Q04609), sequence (Q04609 whole entry): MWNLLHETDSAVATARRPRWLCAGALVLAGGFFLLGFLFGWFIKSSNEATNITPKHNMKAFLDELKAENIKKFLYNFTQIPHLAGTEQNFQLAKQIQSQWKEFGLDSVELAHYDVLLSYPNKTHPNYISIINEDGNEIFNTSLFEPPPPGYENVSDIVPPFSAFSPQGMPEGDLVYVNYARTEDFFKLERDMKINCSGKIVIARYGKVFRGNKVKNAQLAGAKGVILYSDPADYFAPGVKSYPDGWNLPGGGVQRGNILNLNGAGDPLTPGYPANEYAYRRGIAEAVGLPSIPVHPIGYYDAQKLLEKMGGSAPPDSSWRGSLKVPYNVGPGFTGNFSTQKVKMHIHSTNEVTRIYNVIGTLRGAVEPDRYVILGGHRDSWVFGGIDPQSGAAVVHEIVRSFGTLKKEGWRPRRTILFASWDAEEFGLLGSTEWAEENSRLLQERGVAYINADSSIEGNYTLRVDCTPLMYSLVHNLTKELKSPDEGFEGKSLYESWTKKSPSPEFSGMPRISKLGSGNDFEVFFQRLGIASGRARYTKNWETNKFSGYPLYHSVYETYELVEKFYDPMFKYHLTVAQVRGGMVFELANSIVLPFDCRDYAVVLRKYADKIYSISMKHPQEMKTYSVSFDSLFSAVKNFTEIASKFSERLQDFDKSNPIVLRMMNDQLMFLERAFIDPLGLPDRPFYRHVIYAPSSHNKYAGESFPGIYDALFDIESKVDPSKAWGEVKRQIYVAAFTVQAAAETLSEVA

O=C(O)CCC(CP(=O)(O)O)C(=O)O (stereo not shown) [Compound 2-PMPA, 2-(phosphonomethyl)pentanedioic acid]
nephrotoxicity 3 months later (PSMA [1]): attenuated nephrotoxicity | reduction of absorbed dose to the kidneys (PSMA [1]): 83% | inhibition of tumor uptake of the radiotherapeutic (PSMA [2]): more than 50% | salivary gland penetration ([3]; 2-PMPA administered as parent): little to no | oral availability ([3]; in vivo, po): negligible | 2-PMPA kidney exposure, fold lower than achieved with TRIS-POC-2-PMPA delivery [4]: 4 fold | 2-PMPA salivary gland exposure, fold lower than achieved with TRIS-POC-2-PMPA delivery [4]: 10 fold
